For this data set, the system named is CCRIS mutagenicity, Ames/micronucleus/aberration tests. Nature of the data set: CCRIS mutagenicity studies.
Where [1] appears, read: Test System: AMES SALMONELLA TYPHIMURIUM, Strain/Indicator: TA98, Metabolic Activation: NONE, Method: PREINCUBATION
Setting [2] is: Test System: AMES SALMONELLA TYPHIMURIUM, Strain/Indicator: TA100, Metabolic Activation: NONE, Method: PREINCUBATION
[3] abbreviates: Test System: AMES SALMONELLA TYPHIMURIUM, Strain/Indicator: TA98, Metabolic Activation: NONE, Method: STANDARD PLATE.
Where [4] appears, read: Test System: AMES SALMONELLA TYPHIMURIUM, Strain/Indicator: TA100, Metabolic Activation: NONE, Method: STANDARD PLATE.

Structures are written as SMILES. Activity calls are given as the source filed them. The rule behind the calls is not given here.

For the compound `Oc1ccc(Nc2ccc3ccccc3c2)cc1`, the mutagenic call is, setting by setting: (Test System: AMES SALMONELLA TYPHIMURIUM, Strain/Indicator: TA97, Metabolic Activation: HAMSTER, LIVER, S-9, AROCLOR 1254 (10%), Method: PREINCUBATION) “inactive; negative”; (Test System: AMES SALMONELLA TYPHIMURIUM, Strain/Indicator: TA97, Metabolic Activation: HAMSTER, LIVER, S-9, AROCLOR 1254 (30%), Method: PREINCUBATION) “inactive; negative”; (Test System: AMES SALMONELLA TYPHIMURIUM, Strain/Indicator: TA97, Metabolic Activation: NONE, Method: PREINCUBATION) “inactive; negative”; (Test System: AMES SALMONELLA TYPHIMURIUM, Strain/Indicator: TA97, Metabolic Activation: RAT, LIVER, S-9, AROCLOR 1254 (10%), Method: PREINCUBATION) “inactive; negative”; (Test System: AMES SALMONELLA TYPHIMURIUM, Strain/Indicator: TA97, Metabolic Activation: RAT, LIVER, S-9, AROCLOR 1254 (30%), Method: PREINCUBATION) “inactive; negative”; (Test System: AMES SALMONELLA TYPHIMURIUM, Strain/Indicator: TA98, Metabolic Activation: HAMSTER, LIVER, S-9, AROCLOR 1254 (10%), Method: PREINCUBATION) “inactive; negative”. The mutagenic call reads like this: (Test System: AMES SALMONELLA TYPHIMURIUM, Strain/Indicator: TA98, Metabolic Activation: HAMSTER, LIVER, S-9, AROCLOR 1254 (30%), Method: PREINCUBATION) “inactive; negative”; under setting [1], “inactive; negative”; (Test System: AMES SALMONELLA TYPHIMURIUM, Strain/Indicator: TA98, Metabolic Activation: RAT, LIVER, S-9, AROCLOR 1254 (10%), Method: PREINCUBATION) “inactive; negative”; (Test System: AMES SALMONELLA TYPHIMURIUM, Strain/Indicator: TA98, Metabolic Activation: RAT, LIVER, S-9, AROCLOR 1254 (30%), Method: PREINCUBATION) “inactive; negative”; (Test System: AMES SALMONELLA TYPHIMURIUM, Strain/Indicator: TA100, Metabolic Activation: HAMSTER, LIVER, S-9, AROCLOR 1254 (10%), Method: PREINCUBATION) “inactive; negative”; (Test System: AMES SALMONELLA TYPHIMURIUM, Strain/Indicator: TA100, Metabolic Activation: HAMSTER, LIVER, S-9, AROCLOR 1254 (30%), Method: PREINCUBATION) “inactive; negative”. Further, the mutagenic call was “inactive; negative” under setting [2]; “inactive; negative” (Test System: AMES SALMONELLA TYPHIMURIUM, Strain/Indicator: TA100, Metabolic Activation: RAT, LIVER, S-9, AROCLOR 1254 (10%), Method: PREINCUBATION); “inactive; negative” (Test System: AMES SALMONELLA TYPHIMURIUM, Strain/Indicator: TA100, Metabolic Activation: RAT, LIVER, S-9, AROCLOR 1254 (30%), Method: PREINCUBATION); “inactive; negative” (Test System: AMES SALMONELLA TYPHIMURIUM, Strain/Indicator: TA1535, Metabolic Activation: HAMSTER, LIVER, S-9, AROCLOR 1254 (10%), Method: PREINCUBATION); “inactive; negative” (Test System: AMES SALMONELLA TYPHIMURIUM, Strain/Indicator: TA1535, Metabolic Activation: HAMSTER, LIVER, S-9, AROCLOR 1254 (30%), Method: PREINCUBATION); “inactive; negative” (Test System: AMES SALMONELLA TYPHIMURIUM, Strain/Indicator: TA1535, Metabolic Activation: NONE, Method: PREINCUBATION). The mutagenic call runs as follows: (Test System: AMES SALMONELLA TYPHIMURIUM, Strain/Indicator: TA1535, Metabolic Activation: RAT, LIVER, S-9, AROCLOR 1254 (10%), Method: PREINCUBATION) “inactive; negative”; (Test System: AMES SALMONELLA TYPHIMURIUM, Strain/Indicator: TA1535, Metabolic Activation: RAT, LIVER, S-9, AROCLOR 1254 (30%), Method: PREINCUBATION) “inactive; negative”; (Test System: AMES SALMONELLA TYPHIMURIUM, Strain/Indicator: TA1537, Metabolic Activation: HAMSTER, LIVER, S-9, AROCLOR 1254 (30%), Method: PREINCUBATION) “inactive; negative”; (Test System: AMES SALMONELLA TYPHIMURIUM, Strain/Indicator: TA1537, Metabolic Activation: NONE, Method: PREINCUBATION) “inactive; negative”; (Test System: AMES SALMONELLA TYPHIMURIUM, Strain/Indicator: TA1537, Metabolic Activation: RAT, LIVER, S-9, AROCLOR 1254 (30%), Method: PREINCUBATION) “inactive; negative”.

For `Cc1cnc2c(ccc3c2nc(N)n3C)n1`, the mutagenic call was “active; positive” (Test System: AMES SALMONELLA TYPHIMURIUM, Strain/Indicator: TA98, Metabolic Activation: RAT, LIVER, S-9, AROCLOR 1254, Method: PREINCUBATION) and “active; positive” (Test System: AMES SALMONELLA TYPHIMURIUM, Strain/Indicator: TA98, Metabolic Activation: RAT, LIVER, S-9, AROCLOR 1254, Method: STANDARD PLATE).

`CCOP(=O)(OCC)Oc1nc(Cl)c(Cl)cc1Cl`: the mutagenic call under setting [3] was “inactive; negative”; the mutagenic call (Test System: AMES SALMONELLA TYPHIMURIUM, Strain/Indicator: TA98, Metabolic Activation: RAT, LIVER, S-9, Method: STANDARD PLATE) was “inactive; negative”; the mutagenic call under setting [4] was “inactive; negative”; the mutagenic call (Test System: AMES SALMONELLA TYPHIMURIUM, Strain/Indicator: TA100, Metabolic Activation: RAT, LIVER, S-9, Method: STANDARD PLATE) was “inactive; negative”.

As to `c1cc2c3c(c1)C1NC1c1cccc(c1-3)C1NC21` (stereo not given), under setting [4], the mutagenic call was “active; positive”.

`CCOP(=S)(OCC)SCSCC`: the mutagenic call is, setting by setting: (Test System: AMES SALMONELLA TYPHIMURIUM, Strain/Indicator: TA97A, Metabolic Activation: NONE, Method: STANDARD PLATE) “inactive; negative”; (Test System: AMES SALMONELLA TYPHIMURIUM, Strain/Indicator: TA97A, Metabolic Activation: PLANT, HOMOGENATE, S-14, Method: STANDARD PLATE) “inactive; negative”; (Test System: AMES SALMONELLA TYPHIMURIUM, Strain/Indicator: TA97A, Metabolic Activation: S-9, Method: STANDARD PLATE) “inactive; negative”; under setting [1], “inactive; negative”; under setting [3], “inactive; negative”; (Test System: AMES SALMONELLA TYPHIMURIUM, Strain/Indicator: TA98, Metabolic Activation: PLANT, HOMOGENATE, S-14, Method: STANDARD PLATE) “inactive; negative”. In addition, the mutagenic call was “inactive; negative” (Test System: AMES SALMONELLA TYPHIMURIUM, Strain/Indicator: TA98, Metabolic Activation: S-9, Method: STANDARD PLATE); “inactive; negative” under setting [2]; “inactive; negative” under setting [4]; “inactive; negative” (Test System: AMES SALMONELLA TYPHIMURIUM, Strain/Indicator: TA100, Metabolic Activation: PLANT, HOMOGENATE, S-14, Method: STANDARD PLATE); “inactive; negative” (Test System: AMES SALMONELLA TYPHIMURIUM, Strain/Indicator: TA100, Metabolic Activation: S-9, Method: STANDARD PLATE); “inactive; negative” (Test System: AMES SALMONELLA TYPHIMURIUM, Strain/Indicator: TA1535, Metabolic Activation: NONE, Method: STANDARD PLATE). For the same compound, the mutagenic call by setting is: (Test System: AMES SALMONELLA TYPHIMURIUM, Strain/Indicator: TA1535, Metabolic Activation: PLANT, HOMOGENATE, S-14, Method: STANDARD PLATE) “inactive; negative”; (Test System: AMES SALMONELLA TYPHIMURIUM, Strain/Indicator: TA1535, Metabolic Activation: S-9, Method: STANDARD PLATE) “inactive; negative”.

In the case of `c1ccc(CN2C3c4ccccc4-c4ccccc4C32)cc1` (stereo not given), the mutagenic call under setting [4] was “active; positive”.

On to `NC(=O)c1cc(N2CC2)c([N+](=O)[O-])cc1[N+](=O)[O-]`, for which the mutagenic call was “inactive; negative” under setting [3]; “active; positive” under setting [4]; “active; positive” (Test System: E. COLI, Strain/Indicator: NFR-343, Metabolic Activation: NONE, Method: AGAR OVERLAY); “active; positive” (Test System: E. COLI, Strain/Indicator: NFR-343, Metabolic Activation: NONE, Method: STANDARD PLATE); “active; positive” (Test System: E. COLI, Strain/Indicator: NFR-343, Metabolic Activation: RAT, LIVER, S-9, AROCLOR 1254, Method: STANDARD PLATE); “active; positive” (Test System: E. COLI, Strain/Indicator: WP2, Metabolic Activation: NONE, Method: STANDARD PLATE). The mutagenic call is, setting by setting: (Test System: E. COLI, Strain/Indicator: WP2 UVRA (PKM101), Metabolic Activation: NONE, Method: STANDARD PLATE) “active; positive”; (Test System: E. COLI, Strain/Indicator: WP2 UVRA, Metabolic Activation: NONE, Method: AGAR OVERLAY) “active; positive”; (Test System: E. COLI, Strain/Indicator: WP2 UVRA, Metabolic Activation: NONE, Method: STANDARD PLATE) “active; positive”; (Test System: E. COLI, Strain/Indicator: WP2 UVRA, Metabolic Activation: RAT, LIVER, S-9, AROCLOR 1254, Method: STANDARD PLATE) “active; positive”.

The values are drawn from PubChem BioAssay AID1259407 (Chemical Carcinogenesis Research Information System (CCRIS), 2018).
